Source: US6008258A (priority 1998, dated 1999)
Entries after “also recorded” stand apart in the source; their conditions may differ. Counter-ions that a name gives are not always drawn. Like-named read-outs stand apart in the source and are kept apart here.

Tests used:
rat [1] = assay type: in vivo
humans = humans (Olsen); cited from earlier work
mice = mice (Smits); cited from earlier work
rat [2] = details: rats (Ingoglia); cited from earlier work
NMDA-induced behaviors = assay: Intrathecal NMDA-induced nociceptive behaviors
rat [3] = assay: Formalin test (formalin-induced flinching), intrathecal drug
rat [4] = assay: Tail-flick test, intrathecal, cumulative dose-response and time course; details: for antinociceptive (analgesic) effect in tail-flick test: up to cumulative 460 μg/rat; for blockade of antinociceptive effect of l-methadone: naloxone 30 μg/rat + l-methadone 80 μg/rat IT
morphine tolerance = details: Elliott et al.; cited from earlier work
[5] = tested on: mu-type of the opioid receptor; details: Neil; cited from earlier work
[6] = tested on: NMDA receptor in rat cortical membranes; details: rat cortical membranes (Ebert); cited from earlier work
[7] = tested on: NMDA-induced depolarization; details: in vitro (Ebert), cited from earlier work
[8] = tested on: pain syndromes unresponsive to morphine; details: anecdotal case reports; cited from earlier work
[9] = tested on: formalin-induced nociceptive behavior; details: pretreatment, literature, cited from earlier work
[10] = tested on: NMDA-induced nociceptive behaviors; details: Okano et al.; cited from earlier work
NMDA receptors = details: cited from earlier work
[11] = tested on: NMDA receptor (noncompetitive MK-801 site), rat forebrain; assay type: binding
spinal cord neurons = details: Dickenson et al.; cited from earlier work
[12] = biological target: NMDA receptor, rat forebrain; details: used to calculate Ki; no footnote a; read-out: Kd (CGS19755), forebrain; cited from earlier work

CCC(=O)C(C[C@H](C)N(C)C)(c1ccccc1)c1ccccc1 [d-Methadone, (S)-(+)-methadone]
development of morphine tolerance (rat [1]; rat, in vivo): prevented the development of morphine tolerance | effect of d-methadone alone on morphine ED50 (rat [1]; rat, in vivo): did not alter | morphine ED50 in d-methadone+morphine group (rat [1]; rat, in vivo): not significantly increased | analgesic potency vs l-methadone (less potent) (humans): 50 fold | opioid-like locomotor activity (mice): does not produce opioid-like locomotor activity | activity following intraventricular administration (rat [2]): inactive | blockade of an ED99 dose of NMDA (NMDA-induced behaviors; 250 μg (809 nmol)/rat, NMDA 2.4 nmol/rat): completely blocked | increase of NMDA ED50 (NMDA-induced behaviors; d-methadone 250 μg/rat): more than 3 fold | effect on phase 2 flinching vs saline (rat [3]; 250 μg/rat IT, with or without naloxone 30 μg/rat): significantly reduce | decrease in phase 2 flinching (rat [3]; 320 μg/rat spinal): 68% | effect on number of flinches, phase 1 (rat [3]; IT 32, 160, 320 μg/rat, 0-10 minutes): did not affect; also recorded: not during phase 1 | effect on flinching behavior, phase 2 (rat [3]; IT 32, 160, 320 μg/rat, 10-60 minutes): dose-dependently reduces | antinociceptive (analgesic) effect in tail-flick test (rat [4]; intrathecal): no antinociceptive effects | antinociceptive (analgesic) effect in tail-flick test (rat [4]; intrathecal, listed as d-methadone): None of the rats that received d-methadone became an analgesic responder; also recorded: no analgesia

O=C(O)[C@@H]1C[C@H]2C[C@@H](CP(=O)(O)O)CC[C@H]2CN1 [LY274614]
effect on development of tolerance to morphine (morphine tolerance): attenuates and reverses

CCC(=O)C(CC(C)N(C)C)(c1ccccc1)c1ccccc1 (racemic) [dl-Methadone]
binding to mu-type of the opioid receptor [5]: binds preferentially | affinity for the NMDA receptor [6]: low μm affinity | effect on NMDA-induced depolarization [7]: reduced NMDA-induced depolarizations | effect on NMDA-induced depolarization ([7]; listed as racemic methadone): reduces NMDA-induced depolarization | management of pain syndromes unresponsive to morphine [8]: successful management

3-amino-5-phosphonovaleric acid [APV]
effect on nociceptive responses in formalin test [9]: reduces | antagonism of NMDA-induced nociceptive behaviors [10]: antagonized

CN1CC[C@]23c4c5ccc(O)c4O[C@H]2[C@@H](O)C=C[C@H]3[C@H]1C5 [Morphine]
Morphine ED50 (95% CI) (rat [1]; SALINE + MORPHINE, Day 2 (so in the source)): 37.6 (28.5-56.7) ug/rat | Morphine ED50 (95% CI) (rat [1]; SALINE, Day 1): 1.0 (0.5-1.8) ug/rat | binding to NMDA receptors (NMDA receptors): do not bind to NMDA receptors

CCC(=O)C(C[C@@H](C)N(C)C)(c1ccccc1)c1ccccc1 [l-Methadone, (R)-(-)-methadone]
time of peak analgesic effect (rat [4]; 40 μg/rat spinal, time course study): 15 min | ED50, tail-flick test (rat [4]; IT, cumulative dose-response): 15.6 ug/rat | antinociceptive (analgesic) effect in tail-flick test (rat [4]; intrathecal): dose-dependent antinociception | ED50, tail-flick antinociception (rat [4]; intrathecal, 95% CI 7.0-29.8): 15.6 μg/rat | approximately ED90 antinociceptive dose (rat [4]; spinal, tail-flick test): ~80 μg/rat

C=CCN1CC[C@]23c4c5ccc(O)c4O[C@H]2C(=O)CC[C@@]3(O)[C@H]1C5 [Naloxone]
reversal by naloxone of antinociceptive effect of d-methadone (rat [3]; naloxone 30 μg/rat + d-methadone 250 μg/rat IT): did not affect; also recorded: not reversed; also recorded: not blocked | effect of naloxone alone on base-line tail-flick latencies / antinociception (rat [4]; 30 μg/rat spinal): did not affect base-line tail-flick latencies or produce an antinociceptive (analgesic) response | blockade of antinociceptive effect of l-methadone (rat [4]): completely blocked | blockade of antinociceptive effect of l-methadone (rat [4]; listed as naloxone): completely blocked; also recorded: blocks; also recorded: effectively antagonized | duration of blockade of l-methadone effect (rat [4]; naloxone 30 μg/rat vs l-methadone 80 μg/rat): at least 75 minutes

CN[C@H](CC(=O)O)C(=O)O [NMDA, N-methyl-D-aspartate]
ED99 dose of NMDA (NMDA-induced behaviors; intrathecal): 2.4 nmol/rat | NMDA ED50 (95% CI) (NMDA-induced behaviors; pretreatment with saline or d-methadone 250 μg/rat): 1.3 (1.0-1.6) nmol/rat IT

O=C1CC[C@@]2(O)[C@H]3Cc4ccc(O)c5c4[C@@]2(CCN3CC2CC2)[C@H]1O5 [Naltrexone]
displacement of [3H]MK-801 binding [11]: did not displace | Ki ([11]; read-out: [3H]MK-801 Ki, forebrain): > 100 µM

COc1ccc2c(c1)[C@]13CCCC[C@@H]1[C@H](C2)N(C)CC3 [Dextromethorphan]
effect on development of tolerance to morphine (morphine tolerance): attenuates and reverses | effect on nociceptive responses in formalin test [9]: attenuates nociceptive responses | effect on nociceptive responses in formalin test ([9]; listed as dextromethorphan): reduces | effect on wind up of spinal cord neurons (spinal cord neurons): suppresses

O=C(O)[C@@H]1C[C@H](CP(=O)(O)O)CCN1 [CGS19755]
Kd [12]: 24 nM

CNC1(c2ccccc2Cl)CCCCC1=O (centres unmarked) [Ketamine]
effect on nociceptive responses in formalin test [9]: reduces

C[C@]12N[C@H](Cc3ccccc31)c1ccccc12 [MK-801, (+)-5 methyl-10,11-dihydro-5H-dibenzo[a,d]cyclo-hepten-5, 10-imine hydrogen maleate]
effect on development of tolerance to morphine (morphine tolerance): attenuates and reverses | effect on nociceptive responses in formalin test [9]: reduces
